# Data reported in US11046701B2, “Salt of cetagliptin, preparation method thereof, pharmaceutical composition, and use thereof” (CGENETECH (SUZHOU, CHINA) CO., LTD., priority 2018, dated 2021).
# Values joined by “and” are separate entries in the source; they are usually repeats but may differ in a detail not shown here. Equal values may be shown once. Read-outs that look alike come from different tables or passages of the source.
# Tests used:
# [1] = tested on: DIO mice; test: Long-term administration on DIO mice: serum metabolic parameters (NEFA, TCHO, TG, insulin); format: in vivo, C57BL16 mice; settings: end of long-term administration; for Serum NEFA / Serum TCHO / Serum TG / Serum insulin: fasted overnight
# Source text: Experimental animals: […] Table 18 was a total data table of the metabolic parameters.
# [2] = target: serum DPPIV (Mus musculus, UniProt P28843); test: PK/PD experiment of ICR mice: activity of serum DPPIV; format: in vivo, CD-1 (ICR) mice; design: the plasma concentration and the DPPIV activity were detected by using plasma; from tissue; host or cells: blood plasma/serum of CD-1 (ICR) mice after oral dosing; settings: ICR mice, 0.1, 0.3, 1 and 3 mg/kg intragastric (FIG. 28)
# Method: (§1) Experimental animals: CD-1 (ICR) mice aged for 4 weeks and weighed for about 18-22 g.
# (§2) Grouping and administration scheme: the mice were fed adaptively, randomly grouped according to the weight on the day before experiment, and fasted overnight. […] After the experimental grouping, the group provided separately for detecting the initial basic value of DPPIV was carried out blood sampling, and other animals were intragastrically administrated with the drug at an administration volume of 10 mL/kg, the blood was sampled after the administration, and all other animals were stimulated with glucose administration; the blood was sampled at 20 min, 40 min, 60 min and 120 min after the glucose administration, respectively, and the plasma concentration and the DPPIV activity were detected by using plasma.
# [3] = Stability of phosphate crystal form B under storage conditions (XRPD, HPLC purity); format: physicochemical
# Method: High performance liquid chromatography (HPLC): the high performance liquid chromatogram was acquired by Agilent 1260 HPLC.
# The crystal form B of phosphate prepared in this example was put into a 1.5 mL small bottle and the small bottles was placed under different conditions: 40° C./75% RH or 25° C./60% RH for one week in an open state, or 80° C. for 24 h. The obtained samples were subjected to XRPD test and HPLC test, and the sealed samples placed at 5° C. were used as reference samples (Initial) for HPLC purity test. […] The weight gain at 25° C./80% RH is 6.5% compared to 0% RH.
# [4] = PK/PD experiment of ICR mice: plasma concentration; format: in vivo, CD-1 (ICR) mice; settings: CD-1 (ICR), mouse; for AUC: read-out: Drug exposure (AUCeff0-3 h)
# Method: as §1, §2
# Research on pharmacodynamics-plasma concentration correlation: blood samples were collected at time points of 1 h, 1.33 h, 1.67 h, 2 h and 3 h after administration, and the plasma concentration was measured. The drug exposure value (AUCeff0-3h) of the DPPIV-P1 increased with the increase of dose, which was 16.09 ng·h/mL, 52.65 ng·h/mL, 162.3 ng·h/mL and 542.28 ng·h/mL, respectively.
# [5] = Long-term administration on DIO mice: weight, food intake, tolerance; settings: for weight after the drug was administrated for 28 days: individual animals
# Method: (§3) A solution with a certain concentration was prepared from the crystal form B of the phosphate, and the administration volume was 10 mL/kg.
# (§4) Experimental animals: C57BL16 mice aged for 5 weeks and weighed for about 13-16 g.
# (§5) Grouping and administration scheme: the mice were fed adaptively and divided into a normal control group and a model group which were fed with high-fat feed (Research diets, D 12492). When the fasting blood glucose of the mice was greater than or equal to 7 mM, it was considered that the mice had become DIO mice. The DIO mice could be selected for the hypoglycemic effect test. The DIO mice were stratified and randomly grouped according to the blood glucose and the weight. […] The weight and the fasting blood glucose were measured weekly; the food amount, the remaining food amount and the food intake were recorded; the mice were fasted overnight at the end of administration, the blood was sampled, and the free fatty acid (NEFA), total cholesterol (TCHO), triglyceride (TG), insulin and DPPIV activity were measured by using serum.
# [6] = tested on: DIO mice; test: Long-term administration on DIO mice: fasting blood glucose; format: in vivo; settings: for inhibition rate of the rise of the blood glucose: end of experiment (28 days), vs model control group; for fasting blood glucose data after the drug was administrated for 28 days: individual animals
# Method: as §3, §4, §5
# [7] = Weight of ICR mice of each group; format: in vivo, CD-1 (ICR) mice; settings: individual animals
# Method: as §1, §2
# serum DPPIV, sequence (P28843 38-760 limits assumed): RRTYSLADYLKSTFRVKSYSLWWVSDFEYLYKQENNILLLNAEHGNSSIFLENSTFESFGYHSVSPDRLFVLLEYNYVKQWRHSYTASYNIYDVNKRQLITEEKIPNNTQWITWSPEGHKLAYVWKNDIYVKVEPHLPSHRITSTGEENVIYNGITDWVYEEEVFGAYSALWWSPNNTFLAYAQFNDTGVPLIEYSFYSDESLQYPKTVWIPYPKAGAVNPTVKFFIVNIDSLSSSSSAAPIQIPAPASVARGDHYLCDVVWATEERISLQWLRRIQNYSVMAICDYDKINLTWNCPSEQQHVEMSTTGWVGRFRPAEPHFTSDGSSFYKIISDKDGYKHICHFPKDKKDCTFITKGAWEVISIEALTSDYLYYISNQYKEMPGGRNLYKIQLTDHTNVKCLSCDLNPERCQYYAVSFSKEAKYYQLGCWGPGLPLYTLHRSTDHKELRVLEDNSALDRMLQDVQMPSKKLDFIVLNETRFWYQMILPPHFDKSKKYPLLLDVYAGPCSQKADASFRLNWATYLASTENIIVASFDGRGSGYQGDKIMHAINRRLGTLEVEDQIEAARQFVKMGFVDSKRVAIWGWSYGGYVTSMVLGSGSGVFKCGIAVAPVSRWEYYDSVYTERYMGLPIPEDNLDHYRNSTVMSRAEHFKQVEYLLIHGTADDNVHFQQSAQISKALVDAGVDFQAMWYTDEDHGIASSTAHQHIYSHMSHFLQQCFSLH
smiles,measurement,setting,value
"C[C@@H]1c2cnc(C(F)(F)F)n2CCN1C(=O)C[C@H](N)Cc1cc(F)c(F)cc1F [DPPIV-P1, (8R)-7-[(3R)-3-amino-1-oxo-4-(2,4,5-trifluorophenyl)butyl]-5,6,7,8-tetrahydro-8-methyl-3-(trifluoromethyl)imidazo[1,5-a]pyrazine]",decrease of insulin compared with the model control group,[1]; 0.3 mg/kg,28.3%
same,Serum NEFA,[1]; 0.3 mg/kg,1.21 ± 0.07 mmol/L
same,Serum TCHO,[1]; 0.3 mg/kg,5.01 ± 0.58 mmol/L
same,Serum TG,[1]; 0.3 mg/kg,1.04 ± 0.13 mmol/L
same,Serum insulin,[1]; 0.3 mg/kg,3.2 ± 2.44 ng/mL
same,Serum NEFA,[1]; 3 mg/kg,1.08 ± 0.14 mmol/L
same,Serum TCHO,[1]; 3 mg/kg,5.06 ± 0.65 mmol/L
same,Serum TG,[1]; 3 mg/kg,0.94 ± 0.15 mmol/L
same,Serum insulin,[1]; 3 mg/kg,4.7 ± 3.55 ng/mL
same,decrease of total cholesterol (TCHO) compared with the model control group,[1]; 30 mg/kg,18.4%
same,Serum NEFA,[1]; 30 mg/kg,1.01 ± 0.11 mmol/L
same,Serum TCHO,[1]; 30 mg/kg,4.36 ± 0.45 mmol/L
same,Serum TG,[1]; 30 mg/kg,0.83 ± 0.11 mmol/L
same,Serum insulin,[1]; 30 mg/kg,4.9 ± 4.04 ng/mL
same,influence on the activity of serum DPPIV,[2],good dose-effect relationship
same,Crystal form,"[3]; 25° C./60% RH, one week",Phosphate crystal form B
same,Purity (area %),"[3]; 25° C./60% RH, one week, open",99.65 area %
same,Crystal form,"[3]; 40° C./75% RH, one week",Phosphate crystal form B
same,Purity (area %),"[3]; 40° C./75% RH, one week, open",99.64 area %
same,Appearance,[3]; 80° C. for 24 h,changed from white solid into yellow solid
same,Crystal form,"[3]; 80° C., 24 h",Phosphate crystal form B
same,Purity (area %),"[3]; 80° C., 24 h",99.48 area %
same,Crystal form,[3]; Initial,Phosphate crystal form B
same,Purity (area %),[3]; Initial (sealed reference sample placed at 5° C.),99.78 area %
same,concentration at 1 h,[4]; oral dose 0.1 mg/kg,8.28 ± 0.96 ng/mL
same,concentration at 1.33 h,[4]; oral dose 0.1 mg/kg,6.51 ± 1.58 ng/mL
same,concentration at 1.67 h,[4]; oral dose 0.1 mg/kg,6.46 ± 0.2 ng/mL
same,concentration at 2 h,[4]; oral dose 0.1 mg/kg,5.73 ± 0.65 ng/mL
same,concentration at 3 h,[4]; oral dose 0.1 mg/kg,4.85 ± 0.25 ng/mL
same,AUC,[4]; oral dose 0.1 mg/kg,16.1 ng·h/mL
same,concentration at 1 h,[4]; oral dose 0.3 mg/kg,26.4 ± 6.47 ng/mL
same,concentration at 1.33 h,[4]; oral dose 0.3 mg/kg,25 ± 3.42 ng/mL
same,concentration at 1.67 h,[4]; oral dose 0.3 mg/kg,17.9 ± 2.43 ng/mL
same,concentration at 2 h,[4]; oral dose 0.3 mg/kg,20.5 ± 0.32 ng/mL
same,concentration at 3 h,[4]; oral dose 0.3 mg/kg,14.2 ± 1.48 ng/mL
same,AUC,[4]; oral dose 0.3 mg/kg,52.6 ng·h/mL
same,concentration at 1 h,[4]; oral dose 1 mg/kg,72.8 ± 7.04 ng/mL
same,concentration at 1.33 h,[4]; oral dose 1 mg/kg,71.9 ± 2.71 ng/mL
same,concentration at 1.67 h,[4]; oral dose 1 mg/kg,75.2 ± 6.09 ng/mL
same,concentration at 2 h,[4]; oral dose 1 mg/kg,57.9 ± 2.06 ng/mL
same,concentration at 3 h,[4]; oral dose 1 mg/kg,52.2 ± 5.54 ng/mL
same,AUC,[4]; oral dose 1 mg/kg,162 ng·h/mL
same,concentration at 1 h,[4]; oral dose 3 mg/kg,231 ± 16.6 ng/mL
same,concentration at 1.33 h,[4]; oral dose 3 mg/kg,292 ± 47.2 ng/mL
same,concentration at 1.67 h,[4]; oral dose 3 mg/kg,242 ± 17.7 ng/mL
same,concentration at 2 h,[4]; oral dose 3 mg/kg,201 ± 44.7 ng/mL
same,concentration at 3 h,[4]; oral dose 3 mg/kg,151 ± 26.4 ng/mL
same,AUC,[4]; oral dose 3 mg/kg,542 ng·h/mL
same,Food intake,[5]; 0.3 mg/kg,2.2 ± 0.3 g/day
same,weight,"[5]; 0.3 mg/kg daily, D1",38.9 ± 3.8 g
same,weight,"[5]; 0.3 mg/kg daily, D7",37.4 ± 3.4 g
same,weight,"[5]; 0.3 mg/kg daily, D14",38.2 ± 4.2 g
same,weight,"[5]; 0.3 mg/kg daily, D21",40.2 ± 4.2 g
same,weight,"[5]; 0.3 mg/kg daily, D28",39.5 ± 5.0 g
same,weight,"[5]; 0.3 mg/kg, total data table of metabolic parameters (end of experiment)",39.5 ± 5.0 g
same,Food intake,[5]; 3 mg/kg,2.2 ± 0.3 g/day
same,weight,"[5]; 3 mg/kg daily, D1",41.5 ± 3.5 g
same,weight,"[5]; 3 mg/kg daily, D7",40.9 ± 4.2 g
same,weight,"[5]; 3 mg/kg daily, D14",43.1 ± 4.9 g
same,weight,"[5]; 3 mg/kg daily, D21",44.2 ± 5.1 g
same,weight,"[5]; 3 mg/kg daily, D28",45.0 ± 5.4 g
same,weight,"[5]; 3 mg/kg, total data table of metabolic parameters (end of experiment)",45.0 ± 5.4 g
same,Food intake,[5]; 30 mg/kg,2.2 ± 0.4 g/day
same,weight,"[5]; 30 mg/kg daily, D1",41.5 ± 3.1 g
same,weight,"[5]; 30 mg/kg daily, D7",40.5 ± 3.0 g
same,weight,"[5]; 30 mg/kg daily, D14",41.2 ± 4.4 g
same,weight,"[5]; 30 mg/kg daily, D21",41.3 ± 3.5 g
same,weight,"[5]; 30 mg/kg daily, D28",42.9 ± 5.6 g
same,weight,"[5]; 30 mg/kg, total data table of metabolic parameters (end of experiment)",42.9 ± 5.6 g
same,weight after the drug was administrated for 28 days,[5]; 0.3 mg/kg,39.9 (2×) and 31.0 and 34.8 and 41.6 and 32.2 and 40.5 and 40.8 and 45.6 and 47.1 and 41.0
same,weight after the drug was administrated for 28 days,[5]; 3 mg/kg,46.8 (2×) and 42.6 and 54.1 and 48.3 and 34.4 and 42.2 and 43.1 and 46.4 and 39.7 and 50.2
same,weight after the drug was administrated for 28 days,"[5]; 30 mg/kg, in g",46.6 and 36.5 and 43.6 and 36.8 and 36.7 and 39.3 and 38.7 and 48.2 and 51.8 and 48.6 and 41.0
same,Fasting blood glucose,"[6]; 0.3 mg/kg daily intragastric, D 1",8.3 ± 1.1 mmol/L
same,Fasting blood glucose,"[6]; 0.3 mg/kg daily intragastric, D 3",8.4 ± 0.9 mmol/L
same,Fasting blood glucose,"[6]; 0.3 mg/kg daily intragastric, D 7",8.4 ± 1.0 mmol/L
same,Fasting blood glucose,"[6]; 0.3 mg/kg daily intragastric, D 14",8.9 ± 1.1 mmol/L
same,Fasting blood glucose,"[6]; 0.3 mg/kg daily intragastric, D 21",8.5 ± 1.0 mmol/L
same,Fasting blood glucose,"[6]; 0.3 mg/kg daily intragastric, D 28",8.3 ± 0.8 mmol/L
same,inhibition rate of the rise of the blood glucose,[6]; 0.3 mg/kg,14.2%
same,Fasting blood glucose,"[6]; 3 mg/kg daily intragastric, D 1",8.3 ± 1.1 mmol/L
same,Fasting blood glucose,"[6]; 3 mg/kg daily intragastric, D 3",8.3 ± 0.9 mmol/L
same,Fasting blood glucose,"[6]; 3 mg/kg daily intragastric, D 7",8.6 ± 2.2 mmol/L
same,Fasting blood glucose,"[6]; 3 mg/kg daily intragastric, D 14",9.1 ± 1.6 mmol/L
same,Fasting blood glucose,"[6]; 3 mg/kg daily intragastric, D 21",8.6 ± 1.0 mmol/L
same,Fasting blood glucose,"[6]; 3 mg/kg daily intragastric, D 28",8.7 ± 0.9 mmol/L
same,inhibition rate of the rise of the blood glucose,[6]; 3 mg/kg,9.9%
same,Fasting blood glucose,"[6]; 30 mg/kg daily intragastric, D 1",8.3 ± 1.0 mmol/L
same,Fasting blood glucose,"[6]; 30 mg/kg daily intragastric, D 3",7.8 ± 1.5 mmol/L
same,Fasting blood glucose,"[6]; 30 mg/kg daily intragastric, D 7",7.9 ± 0.8 mmol/L
same,Fasting blood glucose,"[6]; 30 mg/kg daily intragastric, D 14",7.7 ± 0.7 mmol/L
same,Fasting blood glucose,"[6]; 30 mg/kg daily intragastric, D 21",8.1 ± 0.6 mmol/L
same,Fasting blood glucose,"[6]; 30 mg/kg daily intragastric, D 28",7.9 ± 0.6 mmol/L
same,inhibition rate of the rise of the blood glucose,[6]; 30 mg/kg,18.5%
same,fasting blood glucose data after the drug was administrated for 28 days,[6]; 0.3 mg/kg,10.3 and 8 (3×) and 7.3 (2×) and 8.8 and 8.7 and 8.3 and 8.6 and 7.9
same,fasting blood glucose data after the drug was administrated for 28 days,[6]; 3 mg/kg,9.2 and 7.8 (2×) and 9.8 and 8.9 and 9 and 7.3 and 9.7 and 8 and 8.3 and 10
same,fasting blood glucose data after the drug was administrated for 28 days,"[6]; 30 mg/kg, listed as DPPIV-PI",8.5 and 7.3 and 7.4 (3×) and 7.6 and 8.9 and 8.2 (2×) and 7.5 and 7.8
same,weight,"[7]; 0.1 mg/kg group, 0.1 mg/kg, in g (unit assumed)",22.0 and 24.5 and 24.7 and 25.1 and 26.3 and 26.9 and 24.6 and 23.4 and 24.4 and 25.0 and 23.0 and 24.8 and 24.9 and 26.2 and 24.2
same,weight,"[7]; 0.3 mg/kg group, 0.3 mg/kg",25.3 (2×) and 24.0 and 24.1 and 23.9 and 24.9 (2×) and 24.6 and 26.4 and 26.0 and 25.5 and 22.0 and 22.6 and 25.0 and 24.4
same,weight,"[7]; 1 mg/kg group, 1 mg/kg",26.9 and 25.1 (2×) and 23.5 and 23.6 (2×) and 24.9 (2×) and 24.8 and 26.1 and 25.8 and 26.4 and 25.2 and 22.4 and 23.4
same,weight,"[7]; 3 mg/kg group, 3 mg/kg, in g (unit assumed)",25.0 and 24.8 and 23.0 and 25.4 and 21.7 and 27.3 and 22.3 and 22.4 and 25.7 and 24.0 and 23.3 and 24.1 and 25.2 and 27.2 and 24.5
